In patent US9050285B2, “Recombinant bacterium capable of eliciting an immune response against Streptococcus pneumoniae” (The United States of America National Institutes of Health …, priority 2008, dated 2015):

How the values were obtained:
Assay type in all cases: cell-based
χ9639(pYA4088) = test: Minimum inhibitory concentrations of antibiotics for RASV-Sp strain χ9639(pYA4088); settings: Salmonella Typhi strain χ9639(pYA4088); for MIC: Salmonella enterica, read-out: Minimum inhibitory concentration
Text: (§1) Master seed and working seed banks of each vaccine organism in separate vials have been prepared for frozen storage in vegetable-based cryopreservative. […] Antibiotic sensitivity testing has confirmed that these strains are sensitive to ciprofloxacin, ampicillin, ceftriaxone, trimethoprim/sulfamethoxazole (Table 13). Ampicillin, ciprofloxacin, ceftriaxone and trimethoprim/sulfamethoxazole are typically tested for minimum inhibitory concentrations (MICs) for Salmonella.

χ9640(pYA4088) = test: Minimum inhibitory concentrations of antibiotics for RASV-Sp strain χ9640(pYA4088); settings: Salmonella Typhi strain χ9640(pYA4088); for MIC: Salmonella enterica, read-out: Minimum inhibitory concentration
Text: as §1

χ9633(pYA4088) = test: Minimum inhibitory concentrations of antibiotics for RASV-Sp strain χ9633(pYA4088); settings: Salmonella Typhi strain χ9633(pYA4088)
Text: as §1

Molecule | MIC (χ9639(pYA4088)) | MIC (χ9640(pYA4088)) | Minimum inhibitory concentration (χ9639(pYA4088)) | Minimum inhibitory concentration (χ9633(pYA4088)) | Minimum inhibitory concentration (χ9640(pYA4088))
CC1(C)S[C@@H]2[C@H](NC(=O)[C@H](N)c3ccccc3)C(=O)N2[C@H]1C(=O)O [ampicillin] | < 2 µg/mL | < 2 µg/mL |  |  | 
CO/N=C(\C(=O)N[C@@H]1C(=O)N2C(C(=O)O)=C(CSc3nc(=O)c(=O)[nH]n3C)CS[C@H]12)c1csc(N)n1 [ceftriaxone] | < 1 µg/mL | < 1 µg/mL |  |  | 
O=C(O)c1cn(C2CC2)c2cc(N3CCNCC3)c(F)cc2c1=O [ciprofloxacin] | < 0.25 µg/mL | < 0.25 µg/mL |  |  | 
trimethroprim-sulfamethoxazole |  |  | <20 µg/mL | <20 µg/mL | <20 µg/mL
